Consider 70 molecules from the RepoRT retention time repository (doi:10.1021/acs.analchem.1c00972).

SMILES strings stand for the structures.

Series [1] in a line: RP, Waters ACQUITY UPLC BEH C18, 100 × 1 mm, 1.7 µm, 50 °C, 0.3 mL/min, estimated dead time 0.17 min; A: water + 10 mM ammonium bicarbonate; B: 10% water + 90% methanol + 10 mM ammonium bicarbonate; gradient (min/%B) 0/0 15/100 21/100 22/0 30/0. To be noted: stereoisomer not certain.
The nature of series [2]: RP, Waters ACQUITY UPLC BEH C18, 100 × 1 mm, 1.7 µm, 50 °C, 0.3 mL/min, estimated dead time 0.17 min; A: water + 0.1% formic acid + 20 mM ammonium formate; B: methanol + 0.1% formic acid + 20 mM ammonium formate; gradient (min/%B) 0/0 15/100 21/100 22/0 30/0. To be noted: stereoisomer not certain.

For `OC1C=C2CCN3Cc4cc5c(cc4C(C1O)C23)OCO5` (stereo not drawn) [Lycorine], the LC retention time in series [1] was 9.11 min; in series [2], 4.33 min.

`NC(=O)c1c(Cl)cccc1Cl` [2,6-Dichlorobenzamide]: the LC retention time was 7.59 min in series [1] and 7.57 min in series [2].

As for `CC1=C2C3OC(=O)C(C)C3CCC2(C)C=CC1=O` (stereo not drawn) [alpha-Santonin], the LC retention time in series [1] was 11.5 min; in series [2], 11.3 min.

With `CC(C)N(C(=O)SCC(Cl)=C(Cl)Cl)C(C)C` [Triallate], the LC retention time in series [1] was 17.7 min; in series [2] it was 17.3 min.

Turning to `O=C1C=CCC2C3CCCN4CCCC(CN12)C34` (stereo not drawn) [Sophocarpine], the LC retention time in series [1] was 12.8 min; in series [2], 5.39 min.

On to `CC(=O)CCCCn1c(=O)c2c(ncn2C)n(C)c1=O` [Pentoxifylline], for which the results for the LC retention time in series [1] and in series [2] were 9.98 min and 9.87 min, respectively.

Consider `CN(C)CCOC(C)(c1ccccc1)c1ccccn1` (stereo not drawn) [Doxylamine], for which the LC retention time in series [1] was 14 min; in series [2], 8.49 min.

In the case of `COc1ccc2cc(C(C)C(=O)O)ccc2c1` (stereo not drawn) [Naproxen], the results for the LC retention time in series [1] and in series [2] were 11 min and 13.8 min, respectively.

On to `CCOC(=O)Nc1cccc(OC(=O)Nc2ccccc2)c1` [Desmedipham], for which the LC retention time in series [1] is 13.6 min; in series [2], 13.5 min.

On to `CC(C1CC1)C(O)(Cn1cncn1)c1ccc(Cl)cc1` (stereo not drawn) [Cyproconazole], for which the LC retention time in series [1] is 15 min; in series [2], 14.5 min.

As for `CC12CCC(=O)C=C1CCC1C2CCC2(C)C1CCC2(C)O` (stereo not drawn) [17alpha-Methyltestosterone], the LC retention time is 15 min in series [1] and 14.7 min in series [2].

For `Cc1cccc(C)c1NC(=O)C1CCCCN1C` (stereo not drawn) [Mepivacaine], the LC retention time is 13.1 min in series [1] and 8.36 min in series [2].

With `Cn1c(=O)nc(NC(C)(C)C)[nH]c1=O`, the LC retention time in series [1] was 6.95 min; in series [2] it was 8.56 min.

For `Fc1ccc(C2CCNCC2COc2ccc3c(c2)OCO3)cc1` (stereo not drawn) [Paroxetine], the LC retention time in series [1] is 15 min; in series [2], 12.8 min.

Turning to `CC=C1CC(C)C(C)(O)C(=O)OCC2=CCN3CCC(OC1=O)C23` (stereo not drawn) [Senecionine], the figures for the LC retention time in series [1] and in series [2] were 12.5 min and 8.65 min, respectively.

As to `CC12CCC3C(CCC4(O)CC(O)CCC34C=O)C1(O)CCC2C1=CC(=O)OC1` (stereo not drawn) [Strophanthidin], the LC retention time in series [1] was 11.3 min; in series [2] it was 11 min.

Turning to `O=c1c(OC2OC(CO)C(O)C(O)C2O)c(-c2ccc(O)c(O)c2)oc2cc(O)cc(O)c12` (stereo not drawn) [Hyperoside], the LC retention time is 6.8 min in series [1] and 9.67 min in series [2].

With `CC(=O)N(C)c1ccc(N)cc1` [N-(4-Aminophenyl)-N-methyl-acetamid], the LC retention time is 7.24 min in series [1] and 5.17 min in series [2].

As for `CNC(CC(C)C)C(=O)NC1C(=O)NC(CC(N)=O)C(=O)NC2C(=O)NC3C(=O)NC(C(=O)NC(C(=O)O)c4cc(O)cc(O)c4-c4cc3ccc4O)C(O)c3ccc(c(Cl)c3)Oc3cc2cc(c3OC2OC(CO)C(O)C(O)C2OC2CC(C)(N)C(O)C(C)O2)Oc2ccc(cc2Cl)C1O` (stereo not drawn) [Vancomycin], the LC retention time in series [1] was 8.6 min; in series [2] it was 7.04 min.

`Cc1cc(=O)n(-c2ccccc2)n1C` [Phenazone]: the LC retention time was 8.96 min in series [1] and 8.9 min in series [2].

As to `CC(C)C1(C)N=C(c2ncccc2C(=O)O)NC1=O` (stereo not drawn) [Imazapyr], the LC retention time in series [1] is 5.24 min; in series [2], 8.89 min.

`Cc1ccc(C=C2C(=O)C3(C)CCC2C3(C)C)cc1` (stereo not drawn) [4-Methylbenzylidene camphor]: the values for the LC retention time in series [1] and in series [2] were 17.4 min and 17.1 min, respectively.

For the molecule `CC(=O)C1(O)CCC2C3CC(C)C4=CC(=O)CCC4(C)C3CCC21C` (stereo not drawn) [Medroxyprogesterone], the LC retention time in series [1] is 15.5 min; in series [2], 15.2 min.

In the case of `NC12CC3CC(C1)CC(O)(C3)C2` [3-Amino-1-adamantanol], in series [1], the LC retention time is 10.4 min.

Regarding `CN(CCO)CCO` [Methyl diethanolamine], the LC retention time in series [1] was 2.65 min.

`CCC(C)(NC(=O)c1cc(Cl)c(C)c(Cl)c1)C(=O)CCl` (stereo not drawn) [Zoxamide]: the LC retention time in series [1] was 16 min.

In the case of `COC(=O)c1ccc(C(F)(F)F)nc1S(=O)(=O)NC(=O)Nc1nc(OC)cc(OC)n1` [Flupyrsulfuron-methyl], in series [1], the LC retention time was 10.4 min.

As to `COc1ccc2c3c1OC1C(=O)CCC4C(C2)N(C)CCC314` (stereo not drawn) [Hydrocodone], in series [1], the LC retention time is 12.1 min.

Consider `COCC(C)N(C(=O)CCl)c1c(C)csc1C` (stereo not drawn) [Dimethenamid], for which the LC retention time in series [1] was 14.4 min.

In the case of `CNC(=O)C=C(C)OP(=O)(OC)OC` [Monocrotophos (Crisodin)], in series [1], the LC retention time was 8.11 min.

Turning to `O=C(O)c1cccc(Oc2ccccc2)c1` [3-Phenoxybenzoic acid], in series [1], the LC retention time is 11.2 min.

With `NC(=O)N1c2ccccc2C=Cc2ccccc21` [Carbamazepin], the LC retention time in series [1] is 12.6 min.

As for `CC1C(c2ccc(Cl)cc2)SC(=O)N1C(=O)NC1CCCCC1` (stereo not drawn) [Hexythiazox], the LC retention time in series [1] is 17.6 min.

For `Cn1c(=O)c2c(ncn2C)n(C)c1=O` [Caffeine], the LC retention time in series [1] is 7.78 min.

For the molecule `O=C(OCc1ccccc1)c1ccccc1` [Benzoic acid benzyl ester], the LC retention time in series [1] was 16.3 min.

Consider `CCC(C)c1ccccc1OC(=O)NC` (stereo not drawn) [Fenobucarb], for which the LC retention time in series [1] is 15 min.

Take `N#Cc1c[nH]cc1-c1cccc2c1OC(F)(F)O2` [Fludioxonil]: the LC retention time in series [1] is 14.4 min.

For `CC#Cc1cc(C)nc(Nc2ccccc2)n1` [Mepanipyrim], the LC retention time in series [1] was 15 min.

As to `Nc1ccn(C2OC(CO)C(O)C2(F)F)c(=O)n1` (stereo not drawn) [Gemcitabine], the LC retention time in series [1] is 3.38 min.

Take `O=C(O)CC[C@@H](C(=O)O)N(CC(=O)O)CC(=O)O` [N,N-Bis(carboxymethyl)-L-glutamic acid]: the LC retention time in series [1] is 13 min.

With `CCNc1nc(N)nc(Cl)n1` [Desisopropylatrazine], the LC retention time in series [1] was 8.17 min.

Regarding `CCOP(=S)(OCC)SCn1nnc2ccccc2c1=O` [Ethyl azinphos], the LC retention time in series [1] was 15 min.

As to `O=C1CC=Cc2ncc3ccccc3c21` [Phenanthridinon], the LC retention time in series [1] is 13.2 min.

For the molecule `Nc1ccc(Cl)cc1` [4-Chloroaniline], the LC retention time in series [1] was 10.6 min.

With `CNC(=O)Nc1ccc(C(C)C)cc1` [1-(4-Isopropylphenyl)-3-methyl-Harnstoff], the LC retention time in series [1] is 13.1 min.

As for `CSc1nc(NC2CC2)nc(NC(C)(C)C)n1` [Irgarol], in series [1], the LC retention time is 15.4 min.

For `CNC(=O)Oc1cccc2c1OC(C)(C)O2` [Bendiocarb], the LC retention time in series [1] is 11.9 min.

Consider `CCCCCCCCCCCC[N+](C)(C)[O-]` [N,N-Dimethyldodecylamine N-oxide], for which, in series [1], the LC retention time is 16.8 min.

Regarding `CCCCCC=CCC=CCCCCCCCC(=O)O` [Linoleic acid], in series [1], the LC retention time is 17.6 min.

Take `O=C(O)C=Cc1ccccc1O` [2-Hydroxycinnamic acid]: the LC retention time in series [1] was 5 min.

Consider `CNC(C)C(O)c1ccccc1` (stereo not drawn) [Ephedrine], for which the LC retention time in series [1] is 13.1 min.

Take `c1ccc2ncccc2c1` [Chinolin]: in series [1], the LC retention time is 11.4 min.

In the case of `FC(F)(F)c1cccc(N2CCNCC2)c1` [1-(3-Trifluoromethylphenyl)-piperazine], the LC retention time in series [1] is 10.6 min.

As to `CSc1nc(N)nc(NC(C)(C)C)n1` [Irgarol-Metabolit 1 (Terbutryn-desethyl)], the LC retention time in series [1] was 13.4 min.

Take `CCC1(c2cccc(O)c2)CCCCN(C)C1` (stereo not drawn) [Meptazinole]: the LC retention time in series [1] is 14.4 min.

`Cc1c(NC=O)c(=O)n(-c2ccccc2)n1C` [N-Formyl-4-aminoantipyrine]: the LC retention time in series [1] was 7.81 min.

With `CC12CCC3c4ccc(O)cc4CCC3C1CC(O)C2O` (stereo not drawn) [Estriol], in series [1], the LC retention time was 11.4 min.

For the molecule `Oc1ccc(C=Cc2cc(O)cc(O)c2)cc1` [Resveratrol], in series [1], the LC retention time was 15.4 min.

Consider `CCC(CC)Nc1c([N+](=O)[O-])cc(C)c(C)c1[N+](=O)[O-]` [Pendimethalin], for which the LC retention time in series [1] was 17.5 min.

As for `CCC(C)(c1ccc(O)cc1)c1ccc(O)cc1` [Bisphenol B], the LC retention time in series [1] was 14.3 min.

As for `CC(C)N(Cc1ccccc1)C(=O)C(C)(C)C` [Tebutam], in series [1], the LC retention time is 14.3 min.

For `CCCC(C)(COC(N)=O)COC(=O)NC(C)C` (stereo not drawn) [Carisoprodol], the LC retention time in series [1] was 13.3 min.

With `CC1(C)CON(Cc2ccccc2Cl)C1=O` [Clomazone], the LC retention time in series [1] was 13.9 min.

In the case of `CCCN(CCC)C(=O)SCc1ccccc1` [Prosulfocarb], the LC retention time in series [1] was 16.9 min.

For `N#CC(CCc1ccc(Cl)cc1)(Cn1cncn1)c1ccccc1` (stereo not drawn) [Fenbuconazole], the LC retention time in series [1] was 15.5 min.

As for `CC12CCC(=O)C=C1CCC1C2CCC2(C)C(O)CCC12` (stereo not drawn) [Testosterone], in series [1], the LC retention time is 14.6 min.

For the molecule `CCCCOCCOCCOCCO` [Triethylene Glycol Monobutyl Ether], in series [1], the LC retention time was 11.5 min.

On to `COc1cccc(C2(O)CCCCC2CN(C)C)c1` (stereo not drawn) [Tramadol], for which the LC retention time in series [1] is 14 min.

Regarding `CCNc1nc(NC(C)C)nc(OC)n1` [Atraton], the LC retention time in series [1] was 12.4 min.

For `CNC(=O)Oc1ccc(N(C)C)c(C)c1` [Aminocarb], the LC retention time in series [1] is 12.1 min.
